Columns and labels:
albumin = albumin (Homo sapiens, UniProt P02768); assay: Rhenium probe overlay, Example 5; format: binding; details: neither ... nor ... reacted with the probe
Experimental: To determine the binding properties of tricarbonyl-(4-cyanophenyltretrazolato)-phenanthroline-rhenium (I) (Rhenium probe) to various lipids, Rhenium probe-lipid overlay was performed using either lipids spotted onto PDVF membranes (Perkin Elmer, USA) or lipid MicroStrips (Echelon Biosciences Inc., Salt Lake City, Utah). The membranes contained at least 100 pmoles of each lipid in individual spots (supplementary table 1) or 10 μL (each in PBS) of 10% (v/v) glycerol, 1% (v/v) CHAPS, 1% (w/v) SDS, 1% (v/v) Tween20, Ecydsone (10 μg/100 μL), cholesterol (10 μg/100 μL), progesterone (10 μg/100 μL), PBS, or 1% (v/v) ethanol; and were incubated with 0.5 mM of Rhenium probe in 1% (w/v) BSA/PBS for 40 minutes and then washed four times for 10 minutes in PBS. Imaging was performed on an Image Quant Las 4000 (GE, Sweden) luminescent image analyser, with the Rhenium probe being detected by excitation at 460 nm using an epi-blue light source, and detected using an 605 nm ethidium bromide filter.

[1] = Rhenium molecular probe-lipid overlay (dot blot); format: binding; details: FIG. 7
Experimental: (§1) The experimental protocol probe-lipid overlay was as follows: 50 μM of each lipids was loaded on to PVDF membranes (Perkin Elmer, USA), which were then incubated with molecular probes. PhenCyano and PhenPyridyl were assessed against eleven lipids including; sphingomyelin (Cat # S0756, Sigma Aldrich, USA), sphingosine (Cat # S7049; Sigma Aldrich, USA), L-phosphatidylethanolamine (Cat # P7943, Sigma Aldrich, USA), monosialodanglioside (GM1; Cat # G7641, Sigma Aldrich, USA), oleoly-L-?-lysophosphatidic acid (Cat # L7260, Sigma Aldrich, USA), palmitic acid (Cat # P5917, Sigma Aldrich, USA), sphingomyelin (Cat # S0756, Sigma Aldrich, USA), sphingosine (Cat # S7049; Sigma Aldrich, USA), L-?-phosphatidylethanolamine (Cat # P7943, Sigma Aldrich, USA), monosialodanglioside (GM1; Cat # G7641, Sigma Aldrich, USA), progesterone (Cat #102722, MP Biomedical, USA), ceramide (Cat # C2137; Sigma Aldrich, USA), triacylglycerol mix C2-C10 (Cat #17810, Sigma Aldrich, USA) and cholesteryl acetate (Cat #151114; Sigma Aldrich, USA).
Lipids were dissolved in ethanol, methanol or isopropanol for loading depending on solubility. […] Imaging was performed on an Image Quant Las 4000 (GE, Sweden) luminescent image analyser, with the Rhenium molecular probe being detected by excitation at 460 nm using an epi-blue light source, and detected using an 575 nm ethidium bromide filter.

[2] = Rhenium molecular probe-lipid overlay (dot blot); format: binding; set-up: key to interaction with Cholestrol (dot blot): ✓ indicates a positive interaction; x indicates no interaction
Experimental: as §1
(§2) All other molecular probes were assessed against a panel of six lipids including; sphingomyelin (Cat # S0756, Sigma Aldrich, USA), sphingosine (Cat # S7049; Sigma Aldrich, USA), L-?-phosphatidylethanolamine (Cat # P7943, Sigma Aldrich, USA), monosialodanglioside (GM1; Cat # G7641, Sigma Aldrich, USA), sphingomyelin (Cat # S0756, Sigma Aldrich, USA), sphingosine (Cat # S7049; Sigma Aldrich, USA), L-?-phosphatidylethanolamine (Cat # P7943, Sigma Aldrich, USA), monosialodanglioside (GM1; Cat # G7641, Sigma Aldrich, USA) and triacylglycerol mix C2-C10 (Cat #17810, Sigma Aldrich, USA).
(§3) Lipids were dissolved in ethanol, methanol or isopropanol for loading depending on solubility. Following lipid loading, membranes were left to dry for 20-30 minutes, then they were washed for 10 minutes in cold 10% ethanol, before they were incubated with 10 μM solution of each Rhenium molecular probe in cold 10% ethanol for one hour. Membranes were than washed four times for 10 minutes in cold 10% ethanol prior to imaging. Imaging was performed on an Image Quant Las 4000 (GE, Sweden) luminescent image analyser, with the Rhenium molecular probe being detected by excitation at 460 nm using an epi-blue light source, and detected using an 575 nm ethidium bromide filter.

3T3 L1 cells = assay: Live cell staining with rhenium molecular probes; format: cell-based; details: live samples, 10-20 μM probe
Experimental: Probes were dissolved in DMSO to obtain a stock solution with a concentration of 10 mM. Stock solutions were stored at room temperature in a dark place. Working solutions were prepared only at the time of use as the probe has reduced solubility in aqueous solutions. A Working solution was a dilution 1/1000 to 1/500 of the stock in DMSO to PBS or cell medium, and as such the percentage of DMSO used in actual cell experiments was less than 1%.
For tissues, the tissues were isolated in PBS (or other physiological media) and mounted on a coverslip. For cells, these were grown as per normal practice on coverslips.
The media was removed media and replaced with 10-20 μM solution of molecular probes in PBS (or appropriate physiological media/cell media) at a dilution of stock solution from 1/1000-1/500, for 15-30 minutes at physiologically appropriate temperature (37° C. for cell culture or 25° C. for insect larvae). […] If foetal calf serum is necessary for cell health, an increased incubation time may be necessary to obtain adequate staining.
The samples were washed for one minute in PBS. […]
Micrographs of 3T3 L1, 453 cells and CHOK1 cells and Drosophila fat body tissue stained with rhenium molecular probes, PhenCyan top, PhenPyridyl bottom are shown in FIG. 10. […] Left: confocal images; Right: fluorescence microscopy images.

[3] = Rhenium molecular probe-lipid overlay (dot blot); format: binding; set-up: key to interaction with Progesterone (dot blot): ✓ indicates a positive interaction; x indicates no interaction
Experimental: as §1, §3

[4] = Rhenium molecular probe-lipid overlay (dot blot); format: binding; details: FIG. 7 / FIG. 8
Experimental: as §1, §2, §3

[5] = Rhenium molecular probe-lipid overlay (dot blot); format: binding; set-up: key to interaction with GM1 (dot blot): ✓ indicates a positive interaction; x indicates no interaction
Experimental: as §1, §2, §3

[6] = Rhenium molecular probe-lipid overlay (dot blot); format: binding; set-up: key to interaction with Ceramide (dot blot): ✓ indicates a positive interaction; x indicates no interaction
Experimental: as §1, §3

[7] = 10 μM probe, 50 μM lipid on PVDF membrane

albumin, sequence (P02768 25-609, species assumed): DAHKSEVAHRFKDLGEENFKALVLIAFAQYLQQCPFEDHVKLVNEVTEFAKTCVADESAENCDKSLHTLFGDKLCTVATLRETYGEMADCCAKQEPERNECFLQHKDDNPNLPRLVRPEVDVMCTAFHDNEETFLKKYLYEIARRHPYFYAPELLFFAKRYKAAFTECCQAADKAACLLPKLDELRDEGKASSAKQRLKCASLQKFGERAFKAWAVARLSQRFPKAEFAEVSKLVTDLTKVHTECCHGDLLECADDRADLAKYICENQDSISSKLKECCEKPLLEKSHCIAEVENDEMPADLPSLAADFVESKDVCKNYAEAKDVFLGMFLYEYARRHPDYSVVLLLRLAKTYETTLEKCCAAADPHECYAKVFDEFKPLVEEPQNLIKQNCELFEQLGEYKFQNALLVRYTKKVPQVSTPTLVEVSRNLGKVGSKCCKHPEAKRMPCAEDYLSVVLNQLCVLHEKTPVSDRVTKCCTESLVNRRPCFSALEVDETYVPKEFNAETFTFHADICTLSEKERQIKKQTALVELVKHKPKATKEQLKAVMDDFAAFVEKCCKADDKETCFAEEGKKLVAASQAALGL

N#Cc1ccc(-c2nn[n]([Re](=[C]=O)(=[C]=O)=[C]=O)n2)cc1.c1cnc2c(c1)ccc1cccnc12 [PhenCyano, Triscarbonyl phenanthroline (4-cyanophenyltetrazolato)Rhenium(I)]
reactivity with albumin (albumin): Neither | interaction with fatty acid (palmitic acid), in words [1]: no interaction detected | interaction with Cholestrol (dot blot) [2, 7]: ✓ | affinity towards cholesterol, in words ([2]; FIG. 7 / FIG. 8): some affinity | staining pattern in 3T3 L1 cells (3T3 L1 cells): distribution consistent with lipid droplet staining | interaction with Progesterone (dot blot) [3, 7]: ✓ | affinity towards progesterone, in words ([3]; FIG. 7): some affinity | interaction with triglycerides, in words [4]: no interaction detected | interaction with GM1 (dot blot) [5, 7]: ✓ | affinity towards monosialotetrahexosylganglioside (GM1), in words ([5]; FIG. 7 / FIG. 8): some affinity | interaction with Ceramide (dot blot) [6, 7]: x | interaction with ceramide, in words ([6]; FIG. 7): no interaction detected
